Laboratory results published in patent US20220127258A1, “AROMATIC RING OR HETEROAROMATIC RING COMPOUNDS, PREPARATION METHOD THEREFOR AND MEDICAL USE THEREOF” (The National Institutes of Pharmaceutical R&D Co., Ltd., priority 2019, published 2022).

Columns and labels:
[1] = Visual inspection of solubility of test sample in extracellular fluid; assay type: physicochemical; conditions: 1 nM to 1 μM in extracellular fluid pH 7.4, DMSO 0.1%
Protocol: Extracellular fluid: 140 mM NaCl, 3.5 mM KCl, 1 mM MgCl2, 2 mM CaCl2, 10 mM glucose, 10 mM HEPES, 1.25 mM NaH2PO4, pH=7.4 (adjusted by NaOH). The stock solution of the compound of Example 8 of the present invention (30.26 mM solution in DMSO) was successively diluted with 10 mL of extracellular fluid to obtain 0.3 μM, 1 μM, 3 μM, […], and 30 μM solutions. […] 10 mg of Cisapride was dissolved in 2066.29 μL of dimethyl sulfoxide (DMSO) to obtain a 10 mM stock solution. The Cisapride stock solution was successively diluted with dimethyl sulfoxide (DMSO) to obtain a total of 4 concentrations of 1 μM, 10 μM, 100 μM and 1 mM. Before the test, 10 μL of the diluent at each concentration was added to 10 mL of extracellular fluid to ensure that the DMSO concentration was 0.1%. The final working concentration of Cisapride was 1 nM, 10 nM, 100 nM and 1 μM.

[2] = target: T1, FXR (Homo sapiens, UniProt Q96RI1); assay: FXR agonistic activity, luciferase assay; assay type: cell-based; conditions: luc2P-GAL4-HEK293 cells transfected with pBIND-FXR, 24 hours
T1 sequence (Q96RI1 262-486 limits assumed): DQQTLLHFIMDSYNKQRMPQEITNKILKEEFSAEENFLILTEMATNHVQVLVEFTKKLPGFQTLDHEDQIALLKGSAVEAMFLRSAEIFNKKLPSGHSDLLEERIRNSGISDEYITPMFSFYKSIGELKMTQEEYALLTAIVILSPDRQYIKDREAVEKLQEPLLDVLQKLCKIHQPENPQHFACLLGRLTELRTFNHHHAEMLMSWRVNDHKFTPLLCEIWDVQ
Protocol: The FXR agonistic activity of the compound of the present invention was evaluated using the luciferase assay.
The experimental process comprises the follows. The luc2P-GAL4-HEK293 stably transfected cell line (the cell line was established by transfecting pGL4.35 plasmid with HEK293 cells which was then subjected to Hygromycin B screening. The cell contained 9×GAL4 UAS and firefly luciferase reporter gene. The ligand-activated LBD-GAL4 DBD fusion protein can enter the nucleus to bind to 9×GAL4 UAS and activate the transcription of the downstream luciferase reporter gene) was transferred to a 96-well plate with […] per well. pBIND-FXR (Which was constructed by inserting FXR-LBD into pFN26A-BIND hRluc-neo Flexi® vector. The plasmid was 7.5 kb in size, Amp resistant, contained FXR-LBD, and can express FXR-LBD and GAL4 DBD fusion proteins) was transfected using X-tremeGENE HP transfection reagent. The ratio of plasmid to transfection reagent was 1 μg: 2 μl. The specific amount was 100 ng of plasmid and 0.2 μl of X-tremeGENE HP transfection reagent per well. The test compounds (the highest concentration of each compound was 30 μM, 3-fold dilution, a total of 10 concentrations) were added to induce the expression of luciferase. After 24 hours, the 96-well plate containing the test cells was taken out from the incubator, and placed at room temperature. Dual-Glo® Luciferase Reagent with the volume equal to the volume of the medium in the well (80 μl/well) was added to each well and mixed well. The plate was incubated at room temperature for 20 minutes to allow the cells to be fully lysed. All the liquid in the plate was transferred to a 96-well microtiter plate, and the firefly luciferin value was measured with a multi-function plate reader (manufacturer: Bio Tek (USA); model: Synergy4). Dual-Glo® a Stop & Glo® Reagent with the volume equal to the volume of the initial medium (80 μl/well) was added to each well and mixed well. The plate was incubated at room temperature for 10 minutes, and the renilla luciferin value was measured. The measurement order of renilla fluorescence should be the same as that of firefly fluorescence. Curve fitting and EC50 calculation were conducted using GraphPad Prism 5 software by nonlinear regression method. The fitting equation is: Y=Bottom+(Top−Bottom)/(1+10^((Log EC50−X)*HillSlope)), wherein EC50 refers to the semi-effective concentration, Top refers to the maximum effect, Bottom refers to the blank effect, and HillSlope refers to the slope.

[3] = test system: cholestasis rat induced by ANIT; assay: Efficacy on the cholestasis rat model induced by 1-naphthyl isothiocyanate (ANIT); assay type: in vivo, SD rats; set-up: ALT / AST / GGT / TBA: unit not given here; conditions: for level of ALT, AST, GGT and TBA in the serum of ANIT rat (in words): 3 and 10 mg/kg/d, conclusion of Test Example 2; for ALT / AST / GGT / TBA: serum, 4 days, ANIT rat
Protocol: Animals: SD rats, male, 7 to 8 weeks old, weight: 220 to 240 g, purchased from Beijing Vital River Laboratory Animal Technology Co., Ltd., SPF grade, Certificate No.: SCXK (Beijing) 2016-0011, license issuing administration: Beijing Municipal Commission of Science and Technology.
Sample formulation: The compound of the present invention was added to DMSO, and dissolved completely by ultrasound. 0.5% CMC-Na was added to constant volume (DMSO: 0.5% CMC-Na=1:99), and the solution was homogenized by ultrasound for later use.
After 3 to 5 days of acclimation, the animals were divided into 20 groups according to body weight: normal group, model group, Example 8 (3 mg/kg/d, 10 mg/kg/d) group, Example 11 (3 mg/kg/d, 10 mg/kg/d) group, Example 12 (3 mg/kg/d, 10 mg/kg/d) group, Example 14 (3 mg/kg/d, 10 mg/kg/d) group, Example 20 (3 mg/kg/d, 10 mg/kg/d) group, Example 22 (3 mg/kg/d, 10 mg/kg/d) group, Example 26 (3 mg/kg/d, 10 mg/kg/d) group, Example 28 (3 mg/kg/d, 10 mg/kg/d) group, and Example 29 (3 mg/kg/d, 10 mg/kg/d) group, with 10 rats for each group. Intragastric administration was conducted with an administration volume of 10 mL/kg, once a day, for a total of 4 days. On Day 2, ANIT (1-naphthyl isothiocyanate, Macklin, purity: 98%, item number: N814658, CAS number: 551-06-4, specification: 5 g/bottle, storage conditions: 2 to 8 degrees, batch number: C10116101) with a dose of 50 mg/kg and an administration volume of 5 mL/kg was administered intragastrically once to each animal (except for animals in the normal group) 4 hours after the administration. The animals were fasted on Day 4 morning. The animals were anesthetized by isoflurane inhalation using a small animal anesthesia machine. Blood was collected from the venous plexus behind the eyeball using a capillary glass tube (about 1 ml per animal), and then left to stand for about one hour. It was centrifuged at 3500 rpm for 10 minutes to obtain the serum. ALT, AST, GGT and TBA indexes as well as the plasma concentration of the compound were determined using an AU480 automatic biochemical analysis system (BECKMAN COULTER). Liver was collected, weighed, and cutted into pieces. Normal saline was added (liver weight: normal saline=1:2), and the mixture was homogenized and freezed. The concentration of the compound in liver was determined using an ultra performance liquid chromatograph (Shimadzu, LC 30AD) and triple quadrupole mass spectrometer (AB, TQ5500).

| SMILES | solubility, visually inspected [1] | EC50 [2] | level of ALT, AST, GGT and TBA in the serum of ANIT rat (in words) [3] | ALT ([3]; 3 mg/kg/d intragastric) | AST ([3]; 3 mg/kg/d intragastric) | GGT ([3]; 3 mg/kg/d intragastric) | TBA ([3]; 3 mg/kg/d intragastric) | ALT ([3]; 10 mg/kg/d intragastric) | AST ([3]; 10 mg/kg/d intragastric) | GGT ([3]; 10 mg/kg/d intragastric) | TBA ([3]; 10 mg/kg/d intragastric) |
| --- | --- | --- | --- | --- | --- | --- | --- | --- | --- | --- | --- |
| COc1cc(N)c(Cl)cc1C(=O)NC1CCN(CCCOc2ccc(F)cc2)CC1OC (centres unmarked) [Cisapride, reference compound] | completely dissolved without visible precipitation |  |  |  |  |  |  |  |  |  |  |
| O=C(O)c1ccc(-c2nnc(N3[C@@H]4CC[C@H]3C[C@@H](OCc3c(-c5c(Cl)cccc5Cl)noc3C3CC3)C4)o2)cc1F [Example 12] |  | 100 to 500 nM | significantly reduce | 122.5 ± 89.7 | 314.2 ± 237.9 | 2.2 ± 0.8 | 69.0 ± 66.7 | 54.7 ± 27.3 | 139.3 ± 34.6 | 1.9 ± 0.5 | 25.4 ± 14.3 |
| O=C(O)c1csc(-c2nnc(N3[C@@H]4CC[C@H]3C[C@@H](OCc3c(-c5c(Cl)cccc5Cl)noc3C3CC3)C4)o2)c1 [Example 20] |  | 50 to 100 nM |  | 141.5 ± 101.4 | 400.2 ± 304.4 | 2.8 ± 1.2 | 119.5 ± 124.7 | 50.9 ± 22.4 | 139.8 ± 58.4 | 2.6 ± 0.5 | 16.1 ± 8.0 |
| O=C(O)c1ccc(-c2nnc(N3[C@@H]4CC[C@H]3C[C@@H](OCc3c(-c5ccccc5OC(F)(F)F)noc3C3CC3)C4)o2)cc1F [Example 26] |  | 100 to 500 nM | significantly reduce | 62.2 ± 27.6 | 187.7 ± 50.4 | 1.9 ± 0.8 | 23.2 ± 10.1 | 50.0 ± 11.2 | 162.3 ± 27.7 | 1.4 ± 0.7 | 35.3 ± 13.2 |
| O=C(O)c1cccc(-c2nnc(N3[C@@H]4CC[C@H]3C[C@@H](OCc3c(-c5ccccc5OC(F)(F)F)noc3C3CC3)C4)o2)c1 [Example 28] |  | < 25 nM | significantly reduce | 147.1 ± 66.2 | 342.7 ± 153.6 | 2.3 ± 0.5 | 66.2 ± 58.4 | 46.6 ± 12.1 | 150.8 ± 28.7 | 1.9 ± 0.5 | 20.5 ± 6.0 |
| O=C(O)c1ccc(-c2nnc(N3[C@@H]4CC[C@H]3C[C@@H](OCc3c(-c5ccccc5OC(F)(F)F)noc3C3CC3)C4)o2)c(F)c1 [Example 29] |  | 100 to 500 nM | significantly reduce | 82.0 ± 44.5 | 256.0 ± 168.8 | 2.3 ± 1.1 | 51.7 ± 65.2 | 77.8 ± 69.5 | 189.4 ± 76.9 | 1.9 ± 0.4 | 26.8 ± 13.6 |
